Experimental data as given in PMC3625590, “NBM-T-L-BMX-OS01, Semisynthesized from Osthole, Is a Novel Inhibitor of Histone Deacetylase and Enhances Learning and Memory in Rats” (Evidence-based Complementary and Alternative Medicine : eCAM, 2013).

Tested on: Sco-induced amnesia rats
Assay: Water-maze learning, Sco-induced memory impairment
Type: in vivo, Sprague-Dawley rats
Details: Sco 1.5 mg/kg/d; BMX or SAHA 5 mg/kg/d i.p.
Experimental: SAHA was supplied by NatureWise Biotech and Medicals Corporation (Taipei, Taiwan). […] (St. Louis, MO, USA). The BMX and SAHA stock (100 mg/mL) was dissolved in DMSO and diluted with saline to a final concentration of 0.5 mg/mL (in 0.5% DMSO/saline). […] SD rats were randomly divided into 3 groups. For the naïve animal experiments, the BMX-injected or SAHA-injected groups were injected with BMX (5 mg/kg/d) or SAHA (5 mg/kg/d) intraperitoneally 7 d prior to behavioral experiments and during the experimentation. The control group received the 0.5% DMSO/saline injection. The injection volume was 10 μL/g of body weight. The injections were performed once per day. For the amnesia experiment, the protocol was adopted from previous studies with modifications. […] The control group received the 0.5% DMSO/saline injection. The injection volume was 10 μL/g of body weight. […] The method was adopted from that of a previous study with modifications. A plastic circular pool 2.0 m in diameter and 0.6 m in height was filled with water (25 ± 2°C) to a depth of 20 cm. A circular platform (8 cm in diameter) was placed at a specific location from the edge of the pool and submerged 2-3 cm below the water surface. Water was made cloudy by adding toxic-free dye. Distinctive visual cues were set on the wall. For spatial learning, animals were subjected to 3 trials per day, with one trial early in the morning, one trial at noon, and another in the late afternoon. The training procedure lasted 4 days, and a total of 12 trials were given. This procedure was adopted because spaced training is a better paradigm to facilitate memory consolidation. For these trials, the rats were positioned at different starting points spaced equally around the perimeter of the pool in random order. They had 120 s to find the hidden platform. If a rat could not find the platform, it was guided to the platform and was allowed to remain there for 20 s. The time each animal took to reach the platform was recorded as the escape latency. A probe trial of 120 s was given on day 5 to test their memory retention. The rats were placed in the pool with the platform removed, and the time they spent in each quadrant (Quadrants 1, 2, 3, and 4) was recorded. Quadrant 4 is the target quadrant. For the trained and swimming control experiments, rats in the trained group were subjected to the regular water maze learning procedure. At the end of the experiment, the rats were subjected to visible platform learning. For visible platform learning, a flag was mounted on the platform, and the platform was raised 2.5 cm above the surface of the water. In addition, the dye had not been added, so that the animals could see the location of the platform from the water. […]

O=C(CCCCCCC(=O)Nc1ccccc1)NO [SAHA, suberoylanilide hydroxamic acid, reference compound]
escape latency in finding the hidden platform: attenuates Sco-induced longer escape latency | probe trial, time spent in target quadrant: spent more time in the target quadrant
